Reference: US4755594A, “N^6 -substituted adenosines” (Warner-Lambert Company, priority 1986, dated 1988)

Experiments:
[1] = Mouse Activity and Screen Test Procedure (MAST): inhibition of spontaneous locomotion; assay type: in vivo, Swiss-Webster male mice; conditions: IP, 1 h, read-out: Inhibition of motor activity
Source text: (§1) The compounds of the invention are new chemical substances which are useful as pharmaceutical agents for the treatment of psychoses. The antipsychotic activity of representative compounds of the invention was established by the Mouse Activity and Screen Test Procedure (MAST) described below. Animals Nine unfasted Swiss-Webster male mice weighing 20-30 g are equally divided into three groups for each drug dose to be tested. That is, data for each dose level was generated by three separate groups of three mice each. Drugs A minimum of three dose levels (10, 30, and 100 mg/kg) are tested for each drug. Treatments are administered intraperitoneally one hour prior to testing. All dosages are calculated as parent compound and given in volumes of 10 ml/kg. Compounds are dissolved or suspended in 0.2% Methocel. Control animals are injected with Methocel. Testing A two part testing procedure is started one hour postinjection. First, the screen test (ST) is performed (see Pharmac. Biochem. Behav. 6, 351-353, 1977). Briefly this test consists of placing mice on individual wire screens which are then rotated 180 degrees at the start of a 60 second observation period. The number of mice falling off the inverted screen is recorded. Immediately following the screen test, the final phase of testing is initiated by placing each group of three mice in one actophotometer (Life Sciences, 22, 1067-1076, 1978). The actophotometer consists of a cylindrical chamber whose center is occupied by another cylinder which contains the illumination for six photocells located on the perimeter of the chamber. Six light-beam interruptions equal one count. Locomotor activity is recorded by computer at ten minute intervals for 60 minutes. Data The data obtained from the screen test are expressed as percent of mice falling off the screen. Data derived from locomotor activity of drug treated mice are compared to the activity of vehicle treated animals and are expressed as percent inhibition of spontaneous locomotion. All percentages reported for inhibition of locomotion (LI) are based upon data accumulated for one hour. Both phases of testing are graded: A=60-100%; C=31-59%; and N=0-30%. An overall dose rating is obtained by the following criteria: […]

[2] = Mouse Activity and Screen Test Procedure (MAST): screen test; assay type: in vivo, Swiss-Webster male mice; conditions: IP
Source text: as §1, with “recorded.” for “recorded. Immediately following the screen test, the final phase of testing is initiated by placing each group of three mice in one actophotometer (Life Sciences, 22, 1067-1076, 1978). The actophotometer consists of a cylindrical chamber whose center is occupied by another cylinder which contains the illumination for six photocells located on the perimeter of the chamber. Six light-beam interruptions equal one count. Locomotor activity is recorded by computer at ten minute intervals for 60 minutes.”

Inhibition of screen test failure ([2]; 0.3 mg/kg)	Inhibition of screen test failure ([2]; 1.0 mg/kg)	Inhibition of screen test failure ([2]; 3 mg/kg)	Inhibition of screen test failure ([2]; 10 mg/kg)	Inhibition of screen test failure ([2]; 30 mg/kg)	Inhibition of screen test failure ([2]; 100 mg/kg)	Inhibition of screen test failure ([2]; 0.03 mg/kg)	Inhibition of screen test failure ([2]; 0.1 mg/kg)	Compound	inhibition in vivo at 0.3 mg/kg [1]	inhibition in vivo at 1 mg/kg [1]	inhibition in vivo at 3 mg/kg [1]	inhibition in vivo at 10 mg/kg [1]	inhibition in vivo at 30 mg/kg [1]	inhibition in vivo at 100 mg/kg ([1]; 100 mg/kg)	inhibition in vivo at 0.03 mg/kg ([1]; 0.03 mg/kg)	inhibition in vivo at 0.1 mg/kg ([1]; 0.1 mg/kg)
0%	0%	0%	0%			0%	0%	OC[C@H]1O[C@@H](n2cnc3c(NCC4(c5cccs5)CC4)ncnc32)[C@H](O)[C@@H]1O [Example 3, N6-((1-Thien-2-ylcyclopropyl)methyl)adenosine]	70%	85%	89%	93%			17%	40%
		0%	0%	0%				OC[C@H]1O[C@@H](n2cnc3c(NCC4(c5cccc(Cl)c5)CCC4)ncnc32)[C@H](O)[C@@H]1O [Example 8, N6-((1-(3-Chlorophenyl)cyclobutyl)methyl)adenosine]			22%	35%	73%			
		0%	0%	0%				OC[C@H]1O[C@@H](n2cnc3c(NCC4(c5cccs5)CCC4)ncnc32)[C@H](O)[C@@H]1O [Example 9, N6-((1-Thien-2-ylcyclobutyl)methyl)adenosine]			43%	86%	94%			
		11%	0%	0%				OC[C@H]1O[C@@H](n2cnc3c(NCC4(c5ccccc5)CCCCC4)ncnc32)[C@H](O)[C@@H]1O [Example 11, N6-((1-Phenylcyclohexyl)methyl)adenosine]			15%	-10%	34%			
		0%	0%	0%				OC[C@H]1O[C@@H](n2cnc3c(NCC4(c5ccc(Cl)cc5)CC4)ncnc32)[C@H](O)[C@@H]1O [Example 12, N6-((1-(4-Chlorophenyl)cyclopropyl)methyl)adenosine]			-4%	5%	20%			

Continued, compound first:

Compound	Inhibition of screen test failure ([2]; 0.3 mg/kg)	Inhibition of screen test failure ([2]; 1.0 mg/kg)	Inhibition of screen test failure ([2]; 3 mg/kg)	Inhibition of screen test failure ([2]; 10 mg/kg)	Inhibition of screen test failure ([2]; 30 mg/kg)	Inhibition of screen test failure ([2]; 100 mg/kg)	Inhibition of screen test failure ([2]; 0.03 mg/kg)	Inhibition of screen test failure ([2]; 0.1 mg/kg)	inhibition in vivo at 0.3 mg/kg [1]	inhibition in vivo at 1 mg/kg [1]	inhibition in vivo at 3 mg/kg [1]	inhibition in vivo at 10 mg/kg [1]	inhibition in vivo at 30 mg/kg [1]	inhibition in vivo at 100 mg/kg ([1]; 100 mg/kg)	inhibition in vivo at 0.03 mg/kg ([1]; 0.03 mg/kg)	inhibition in vivo at 0.1 mg/kg ([1]; 0.1 mg/kg)
OC[C@H]1O[C@@H](n2cnc3c(NCC4(c5ccccc5)CC4)ncnc32)[C@H](O)[C@@H]1O [Example 1, N6-((1-Phenylcyclopropyl)methyl)adenosine]	11%	0%	0%	0%	22%	44%			43%	48%	38%	92%	98%	100%		
OC[C@H]1O[C@@H](n2cnc3c(NCC4(c5cccc(Cl)c5)CC4)ncnc32)[C@H](O)[C@@H]1O [Example 2, N6-((1-(3-Chlorophenyl)cyclopropyl)methyl)adenosine]			11%	0%	0%						19%	69%	90%			
O[C@@H]1[C@H](O)[C@@H](CCl)O[C@H]1n1cnc2c(NCC3(c4ccccc4)CC3)ncnc21 [Example 5, 5'-Deoxy-5'-chloro-N6-((1-phenylcyclopropyl)methyl)adenosine]			11%	0%	0%						16%	10%	-4%			
O[C@@H]1[C@H](O)[C@@H](CCl)O[C@H]1n1cnc2c(NCC3(c4cccs4)CC3)ncnc21 [Example 6, 5'-Chloro-5'-deoxy-N6-((1-thien-2-ylcyclopropyl)methyl)adenosine]			0%	0%	0%						11%	16%	51%			
OC[C@H]1O[C@@H](n2cnc3c(NCC4(c5ccccc5)CCC4)ncnc32)[C@H](O)[C@@H]1O [Example 7, N6-((1-Phenylcyclobutyl)methyl)adenosine]		0%	0%	0%						5%	21%	82%				
OC[C@H]1O[C@@H](n2cnc3c(NCC4(c5ccccc5)CCCC4)ncnc32)[C@H](O)[C@@H]1O [Example 10, N6-((1-Phenylcyclopentyl)methyl)adenosine]			11%	0%	22%						-7%	12%	49%			
